# Test results as given in patent publication US20040091947A1, “Screening strategy for anticancer drugs” (priority 2002, published 2004).
# What was measured:
# wild-type HT1080 cells = assay: FACS analysis of GF7/PI stained cells, radiation-induced changes in MI; type: cell-based, human; conditions: 4 mM caffeine, 9 Gy irradiation
# Procedure: (§1) Mitotic index and the incidence of mitotic catastrophe were determined using mitotic cell specific antibodies (MCSA) as follows. Three different MCSA were compared using fluorescence activated cell sorting (FACS) based on immunofluorescence labeling with MCSA coupled with propidium iodide (PI) staining for DNA content. In this procedure, cells were washed, trypsinized, fixed with an equal volume of 70% ethanol (on ice), resuspended in a small volume of 1% BSA-PBS containing an MCSA, incubated for 1 hour at room temperature, and then washed and bound with secondary (fluorescently-labeled) antibody. The tested MCSA included MPM2 (available from Upstate Biotechnology, Cat. #05-368) and two antibodies provided by Dr. P. Davies (Albert Einstein College of Medicine), including the previously characterized TG3 (Anderson et al., 1998, Exp. Cell Res. 238: 498-502) and unpublished GF7 antibody.
# (§2) FACS analysis of GF7/PI stained cells was used to analyze radiation-induced changes in the MI of HT1080 fibrosarcoma cells with different cell cycle checkpoint integrity status.
# [1] = system: HT1080 cells transduced with GSE56; assay: as above; type: cell-based, human; conditions: 4 mM caffeine, 9 Gy irradiation
# Procedure: as §1, §2
# [2] = system: panel of 14 solid tumor-derived cell lines; conditions: moderate equitoxic doses of doxorubicin, 14 lines, cited from earlier work
# BJ-ELB cells [3] = assay: Fluorescence microscopy of DAPI-stained cells (micronuclei, apoptotic morphology, mitotic index, mitotic figures)
# BJ-EN cells [4] = assay: Cell growth / cell number by Coulter counter, doxorubicin-treated cells
# BJ-ELB cells [5] = assay: as above; type: cell-based, human
# Procedure: These cell lines were cultured in a 4:1 mixture of DMEM and Medium 199, with 10% fetal calf serum, supplemented with glutamine, pyruvate, penicillin and streptomycin.
# For comparative analysis of specific cellular responses, a concentration of 30 nM doxorubicin was chosen, which had approximately equal growth-inhibitory effect in both cell lines (FIG. 3B).
# BJ-EN cells [6] = assay: Fluorescence microscopy of DAPI-stained cells (micronuclei, apoptotic morphology, mitotic index, mitotic figures)
# [7] = after release from 30 nM doxorubicin (3 days)
# [8] = day 2 after release from 30 nM doxorubicin
# [9] = two days after release from 30 nM doxorubicin (3 days)
# [10] = two days after release from doxorubicin
compound,measurement,setting,value
Cn1c(=O)c2c(ncn2C)n(C)c1=O [caffeine],increase in MI after irradiation in the presence of caffeine,wild-type HT1080 cells,~2 fold
same,increase in MI after irradiation in the presence of caffeine,[1],up to 3 fold
COc1cccc2c1C(=O)c1c(O)c3c(c(O)c1C2=O)C[C@@](O)(C(=O)CO)C[C@@H]3O[C@H]1C[C@H](N)[C@H](O)[C@H](C)O1 [doxorubicin],lines that showed predominantly apoptotic response,[2]; all other lines developed mitotic catastrophe,two
same,lines that exhibited the senescent phenotype after doxorubicin treatment,[2],Eleven of 14
same,effect of addition of doxorubicin on mitosis,BJ-ELB cells [3]; 30 nM doxorubicin present,only partially inhibited
same,fraction of cells with apoptotic morphology,BJ-ELB cells [3]; [7],6.6%
same,mitotic index (MI),BJ-ELB cells [3]; [8],8.0%
same,micronucleated cell fraction,BJ-ELB cells [3]; [9],26.4%
same,mitotic figures that represented anaphase or telophase,BJ-ELB cells [3]; [10],1%
same,normal mitotic figures,BJ-ELB cells [3]; [10],8%
same,change in cell number during doxorubicin treatment,"BJ-EN cells [4]; 30 nM doxorubicin, 3 days, BJ-EN",essentially no change in cell number
same,resistance to doxorubicin (effect on cell growth),"BJ-EN cells [4]; 3-day exposure to different concentrations, BJ-EN compared with BJ-ELB, except for the lowest drug doses",more resistant to doxorubicin than BJ-ELB cells
same,change in cell number after release from the drug,"BJ-EN cells [4]; three days in drug-free media after 30 nM doxorubicin for 3 days, BJ-EN",did not change significantly
same,change in cell number during doxorubicin treatment,"BJ-ELB cells [5]; 30 nM doxorubicin, first day",increased their number on the first day
same,change in cell number after release from the drug,BJ-ELB cells [5]; day 3 after release (3 dR) from 30 nM doxorubicin,decreased to the same value as at the time of doxorubicin addition
same,effect of addition of doxorubicin on mitosis,BJ-EN cells [6]; 30 nM doxorubicin present,immediate and complete cessation of mitosis
same,fraction of cells with apoptotic morphology,BJ-EN cells [6]; [7],0.9%
same,mitotic index (MI),BJ-EN cells [6]; [8],0.4%
same,micronucleated cell fraction,BJ-EN cells [6]; [9],1.7%
same,abnormal mitotic figures,BJ-EN cells [6]; [10],40%
same,mitotic figures that were metaphases and telophases,BJ-EN cells [6]; [10],29%
same,normal mitotic figures,BJ-EN cells [6]; [10],60%
